Test results as given in patent US6797255B1, “Methods and compositions for enhancing magnetic resonance imaging” (Mallinckrodt Inc., priority 1985, dated 2004).

Experiments:
[1] = Solubility of the complex in water; assay type: physicochemical
Method: (§1) The complex, dihydrogen bis(N-[N′-(2,6-diisopropylphenyl)carbamoylmethyl]iminodiaceto)manganese(II) hydrate, was thus isolated as the hydrated species. The solubility of the complex in water was determined to be approximately 0.1% w/v. The relaxation parameters T1 and T2 of a 10-^−3M solution of the complex in a 90 MHz NMR experiment were determined to be 0.107 sec. and 0.007 sec. respectively. The T1 and T2 values for water are 2.51 sec. and 0.150 sec., respectively.
(§2) The relaxation parameters T1 and T2 of a 10^−3M solution of the complex in a 90 MHz NMR experiment were determined to be 126 milliseconds and 1.5 milliseconds, respectively.

[2] = Relaxation parameters T1 and T2 of a 10^−3M solution in a 90 MHz NMR experiment; assay type: physicochemical; details: 10-^−3M solution
Method: as §1, §2

[3] = Toxicity profile of the gadolinium complex; details: in vivo
liver = assay: T1 and T2 lowering effects of the gadolinium complex in the liver; details: in vivo

SMILES	solubility of the complex in water [1]	relaxation parameter T1 [2] [s]	relaxation parameter T2 [2] [s]	LD50 [3]	toxicity profile [3]	T1 and T2 lowering effects in the liver (liver)
CC(C)c1cccc(C(C)C)c1NC(=O)CN(CC(=O)[O-])CC(=O)O.CC(C)c1cccc(C(C)C)c1NC(=O)CN(CC(=O)[O-])CC(=O)O.O.[Mn+2] [Example 1]	approximately 0.1 % w/v	0.107	0.007	–	–	–
Cc1cccc(C)c1NC(=O)CN(CC(=O)[O-])CC(=O)O.Cc1cccc(C)c1NC(=O)CN(CC(=O)[O-])CC(=O)[O-].O.O.[Gd+3] [hydrogen bis(N-[N′-(2,6-dimethylphenyl)carbamoylmethyl]iminodiaceto)gadolinium(III) dihydrate]	–	–	–	about 0.2 mmol/kg	persistent, delayed toxicity	relatively poor T1 and T2 lowering effects in the liver
